Assay results taken from patent publication US12180146B2, “Antihypertensive polyol compound and derivative thereof” (TAO PHARMACEUTICAL (SUZHOU) CO., LTD, priority 2020, dated 2024).

Tested on: spontaneously hypertensive rats (SHR)
Test: Antihypertensive activity test: blood pressure and heart rate of spontaneously hypertensive rats (SHR)
Type: in vivo, rat
Settings: 200 mg/kg; for SHR blood pressure (SBP), time after administration 1 h / SHR blood pressure (SBP), time after administration 2 h / SHR blood pressure (SBP), time after administration 3 h / SHR blood pressure (SBP), time after administration 4 h / SHR blood pressure (SBP), time after administration 5 h / SHR blood pressure (SBP), time after administration 6 h: n = 8
Procedure: Tested Drugs: Compounds of the Invention. The dosage of all compound was uniformly set to 200 mg/kg.
In the test, changes in the blood pressure before and after the administration were detected, and compared with the basic value, a reduction of SBP ≥20 mmHg after administration was judged as effective antihypertensive effects; and at the same time, changes in the heart rate before and after the administration were detected.
Heart rate was expressed as mean±standard deviation (x±s). The changes of heart rate before and after the administration were compared by using Two-sample equal variance paired t test, and P<0.05 was regarded as the standard of statistically significant difference.

| SMILES | SBP Difference before and after administration, 0 h (0 h) [mmHg] | SBP Difference before and after administration, 1 h [mmHg] | SHR blood pressure (SBP), time after administration 1 h [mmHg] | SBP Difference before and after administration, 2 h [mmHg] | SHR blood pressure (SBP), time after administration 2 h [mmHg] | SBP Difference before and after administration, 3 h [mmHg] | SHR blood pressure (SBP), time after administration 3 h [mmHg] | SBP Difference before and after administration, 4 h [mmHg] | SHR blood pressure (SBP), time after administration 4 h [mmHg] | SBP Difference before and after administration, 5 h [mmHg] | SHR blood pressure (SBP), time after administration 5 h [mmHg] | SBP Difference before and after administration, 6 h [mmHg] | SHR blood pressure (SBP), time after administration 6 h [mmHg] |
| --- | --- | --- | --- | --- | --- | --- | --- | --- | --- | --- | --- | --- | --- |
| CCc1cccc([C@@H](O)CO)c1 [Compound 1-1] | 0 | 14 | 176 ± 12.4 | 22 | 168 ± 12.0 | 29 | 161 ± 13.1 | 24 | 166 ± 11.4 | 20 | 170 ± 11.9 | 14 | 186 ± 10.1 |
| CCc1cccc([C@H](O)CO)c1 [Compound 1-2] |  | 10 | 176 ± 6.39 | 22 | 164 ± 4.50 | 25 | 161 ± 9.15 | 23 | 163 ± 13.7 | 12 | 174 ± 15.9 | 8 | 178 ± 8.78 |
| [2H]OCC(O[2H])c1cccc(CC)c1 (stereo not shown) [Compound 1-3] |  | 18 | 168 ± 6.39 | 21 | 165 ± 4.50 | 23 | 163 ± 9.15 | 23 | 163 ± 13.7 | 22 | 164 ± 15.9 | 18 | 168 ± 8.78 |
| OCC(O)c1ccccc1 (stereo not shown) [Compound 2] |  | 16 | 169 ± 6.39 | 18 | 167 ± 4.50 | 19 | 166 ± 9.15 | 19 | 166 ± 13.7 | 20 | 165 ± 15.3 | 15 | 170 ± 8.77 |
| Cc1cccc(C(O)CO)c1 (stereo not shown) [Compound 3] |  | 18 | 180 ± 11.6 | 10 | 178 ± 10.9 | 11 | 177 ± 13.9 | 8 | 180 ± 15.80 | 2 | 186 ± 16.0 | 2 | 186 ± 17.7 |
